In patent US10071042B2, “External dermatological agent for anti-ageing” (Hayashibara Co., Ltd., priority 2014, dated 2018):
Marks after values point to notes of the source that are not given here.

Legend:
matrix metalloprotease-1 = experiment: Matrix metalloprotease-1 production of NHDF after IL-1β, ELISA (Experiments 5 and 9); format: cell-based, human; conditions: for Production level of matrix metalloprotease-1 (%): human IL-1β 1 ng/ml, control = 100%
Protocol: Normal human dermal fibroblasts (NHDF), which had been suspended in a Dulbecco's Modified Eagle Medium supplemented with 10% fetal calf serum to give a concentration of 2.5×10^5 cells/mL, were placed in 96-well microplates by 0.1 mL/well and cultured until reaching a confluent state over the bottom of each well. Thereafter, the medium in each well was replaced with a fresh serum-free culture medium and culture for another 24 hours, added with any one of the test substances in Table 6 at each concentration shown in the table, and cultured for additional 24 hours. Then, the resulting cell cultures were added with human IL-1β to give a final concentration of 1 ng/ml, followed by culturing the cells for another 24 hours. After completion of the culture, matrix metalloprotease-1 in the supernatant in each well was detected with an enzyme-linked immuno sorbent assay (ELISA), commercialized by R & D Systems, Inc., MN, USA, developed coloration with tetramethylbenzidine, and measured for absorption at a wavelength of 450 nm. A control system was provided similarly as above except for not adding any test substance, and determined for the activity of matrix metalloprotease-1 similarly as in the above to be regarded as 100%. The production level of matrix metalloprotease-1 for each test substance was comparatively evaluated based on the following equation. Equation: Production level of matrix metalloprotease-1 (relative value (%))=[(Absorbance of a sample with any one of test substances)/(Absorbance of control)]×100
The experiment was repeated three times, and the data were compared to that of control with the Dunnett's multiple comparisons test. The symbol “*” means a level of significance of p<0.01.
Except for adding the test substances listed in Table 12 at respective concentrations shown in the table, experiments were respectively conducted in accordance with the methods in Experiment 5 disclosed in the specification to examine the effect of the combination use with ascorbic acid 2-glucoside used as a skin whitener in cosmetics on the action of anti-wrinkles by analogues of adenosine N1-oxide 5′-phosphate. A control system was provided and similarly treated as above except for not adding any test substance. The reduction rate of the production level of matrix metalloprotease-1 against that of control based on the following equation. Equation: Reduction rate of the production level of matrix metalloprotease−1(%)=100−[(Absorbance of a sample with any one of test substances)/(Absorbance of control)]×100

[1] = system: normal human epidermal keratinocytes; experiment: Differentiation of keratinocytes, microscopic morphology score (Experiment 1-1); format: cell-based; conditions: 3 days culture, mean of triplicate
Source text: To 12-well plates, one milliliter of a cell suspension with a cell density of 2.5×10^4 cells/mL prepared by suspending normal human epidermal keratinocytes in EpiLife, a product name of a medium for keratinocytes containing a growth factor, commercialized by Life Technologies, Inc., 9800 Medical Center Drive Rockville, Md. 20850 USA; followed by culturing the cells until prevailing up to about ½ of the bottom surface of each well. Thereafter, the culture medium in each well was replaced with a medium for keratinocytes free of growth factor and cultured for two days, and then replaced with a fresh medium for keratinocytes, which contained any one of the test substances in Table 1 at respective concentrations as indicated in the table, and then cultured for three days. As a control, a culture system was provided similarly as above except for not adding any of the test substances. Under a microscopic condition, cell morphology was observed and evaluated for the keratinocyte-differentiation-inducing ability based on the following criteria:
Score 1: The number of cells in a flattened form against the total cells is 50% or lower.
Score 2: The number of cells in a flattened form against the total cells is 50% or more.
Score 3: Nearly all of the cells are in an irregular shape and there appears some cells with gloss.
It means that the higher the score the more the cell differentiation was accelerated. Each experiment system was performed in a triplicate manner, followed by calculating a mean value for each system.

transglutaminase = experiment: Transglutaminase activity, fluorescein cadaverine uptake (Experiments 1-3 and 7); format: cell-based, human; conditions: for Transglutaminase activity (%): control = 100%
Protocol: Normal human epidermal keratinocytes were cultured similarly as in Experiment 1-1, except for adding the test substances as listed in Table 3 to respective culture systems. The cultured normal human epidermal keratinocytes were added with 100 μM of fluorescein cadaverine and allowed to stand for four hours. Thereafter, the resulting cells were washed once with phosphate buffered saline and further treated with cold methanol for 10 min for cell fixation. The fixed cells were washed thrice with cold methanol, followed by the addition of phosphate buffered saline. Fluorescein cadaverine taken in the cells via transglutaminase was analyzed with Cell Imaging Station, commercialized by Molecular Probes Life Technology, France, and the analyzed fluorescent intensities were regarded as transglutaminase activities. There was provided a control system similarly as in the above, except for not adding any of the test substances. The transglutaminase activity of each test substance was evaluated as a relative value determined with the following equation using the fluorescent intensity of the control system being regarded as 100%. Equation: Transglutaminase activity (relative value (%))=[(Fluorescent intensity of a sample with any one of test substances)/(Fluorescent intensity of control)]×100
The experiment was repeated three times, and the data was subjected to the Dunnett's multiple comparisons with Control. The symbol “*” means a level of significance of p<0.01.
Except for adding the test substances listed in Tables 8 and 9 at respective concentrations shown in the tables, experiments were respectively conducted in accordance with the methods in Experiments 1-2 and 1-3 disclosed in the specification to examine the effect of the combination use of epigallocatechin gallate, which is used as an antioxidant for cosmetics, and sodium adenosine N1-oxide 5′-phosphate on the action of accelerating the cornified-envelope production and the action of enhancing the transglutaminase activity of sodium adenosine N1-oxide 5′-phosphate. A control system was provided and similarly treated as above except for not adding any test substance and was determined for both the increase rates of cornified-envelope production level and the transglutaminase activity, based on the following equations. Equation: Increase rate of cornified envelope production level (%)={[(Absorbance of a sample with any one of test substances)/(Absorbance of control)]×100}−100 Equation: Increase rate of transglutaminase (%)={[(Absorbance of a sample with any one of test substances)/(Absorbance of control)]×100}−100

[2] = 20 μM, listed as sodium adenosine N1-oxide 5′-phosphate

Compound: Nc1c2ncn([C@@H]3O[C@H](CO)[C@@H](O)[C@H]3O)c2nc[n+]1[O-] [Adenosine N1-oxide, adenosine N1-oxide]
- Production level of matrix metalloprotease-1 (%) (matrix metalloprotease-1; 5 μM): 86.6%
- Production level of matrix metalloprotease-1 (%) (matrix metalloprotease-1; 10 μM): 77.6* %
- Production level of matrix metalloprotease-1 (%) (matrix metalloprotease-1; 20 μM): 31.9* %
- inhibition at 2 µM (matrix metalloprotease-1; Homo sapiens, NHDF, 2 μM, single use, reduction against control, read-out: Reduction rate of the production level of matrix metalloprotease-1 activity (%)): 10%
- inhibition at 5 µM (matrix metalloprotease-1; Homo sapiens, NHDF, 5 μM, single use, reduction against control, read-out: Reduction rate of the production level of matrix metalloprotease-1 activity (%)): 13.4%
- inhibition at 10 µM (matrix metalloprotease-1; Homo sapiens, NHDF, 10 μM, single use, reduction against control, read-out: Reduction rate of the production level of matrix metalloprotease-1 activity (%)): 22.4%
- Score ([1]; 10 μM): 2.0
- Score ([1]; 20 μM): 3.0
- Score ([1]; 40 μM): 3.0
- Transglutaminase activity (%) (transglutaminase; 20 μM): 632* %
- Transglutaminase activity (%) (transglutaminase; 20 μM, listed as adenosine N1-oxide): about 630%

Compound: Nc1ncnc2c1ncn2[C@@H]1O[C@H](COP(=O)(O)O)[C@@H](O)[C@H]1O [Adenosine 5′-phosphate, reference compound]
- Production level of matrix metalloprotease-1 (%) (matrix metalloprotease-1; 200 μM): 99.5%
- Production level of matrix metalloprotease-1 (%) (matrix metalloprotease-1; 400 μM): 93.3%
- Production level of matrix metalloprotease-1 (%) (matrix metalloprotease-1; 800 μM): 90.3%
- Transglutaminase activity (%) (transglutaminase; 400 μM): 244%

Compound: Nc1c2ncn([C@@H]3O[C@H](COP(=O)([O-])O)[C@@H](O)[C@H]3O)c2nc[n+]1[O-].[Na+] [Sodium adenosine N1-oxide 5′-phosphate, sodium adenosine N1-oxide 5′-phosphate]
- Reduction rate of the production level of matrix metalloprotease-1 activity (%) (matrix metalloprotease-1; 2 μM, single use, reduction against control): 2.9%
- Production level of matrix metalloprotease-1 (%) (matrix metalloprotease-1; 5 μM): 96.0%
- Reduction rate of the production level of matrix metalloprotease-1 activity (%) (matrix metalloprotease-1; 5 μM, single use, reduction against control): 4.0%
- Production level of matrix metalloprotease-1 (%) (matrix metalloprotease-1; 10 μM): 83.1* %
- Production level of matrix metalloprotease-1 (%) (matrix metalloprotease-1; 10 μM, listed as sodium adenosine N1-oxide 5′-phosphate): about 80%
- Reduction rate of the production level of matrix metalloprotease-1 activity (%) (matrix metalloprotease-1; 10 μM, single use, reduction against control): 16.9%
- Production level of matrix metalloprotease-1 (%) (matrix metalloprotease-1; 20 μM): 31.8* %
- Production level of matrix metalloprotease-1 (%) (matrix metalloprotease-1; [2]): about 30%
- Score ([1]; 10 μM): 2.0
- Score ([1]; 20 μM): 3.0
- Score ([1]; 40 μM): 3.0
- Increase rate of transglutaminase activity (%) (transglutaminase; 15 μM, single use, increase over control): 0.0%
- Transglutaminase activity (%) (transglutaminase; 20 μM): 569* %
- Transglutaminase activity (%) (transglutaminase; [2]): about 570%

Compound: 5′-α-glucosyl adenosine N1-oxide [5′-α-Glucosyladenosine N1-oxide]
- Production level of matrix metalloprotease-1 (%) (matrix metalloprotease-1; 200 μM): 85.4* %
- Production level of matrix metalloprotease-1 (%) (matrix metalloprotease-1; 400 μM): 83.6* %
- Production level of matrix metalloprotease-1 (%) (matrix metalloprotease-1; 800 μM): 77.0* %
- Score ([1]; 200 μM): 2.0
- Score ([1]; 400 μM): 2.0
- Score ([1]; 800 μM): 3.0
- Transglutaminase activity (%) (transglutaminase; 400 μM): 404* %

Compound: 3′-α-glucosyl adenosine N1-oxide [3′-α-Glucosyladenosine N1-oxide]
- Production level of matrix metalloprotease-1 (%) (matrix metalloprotease-1; 200 μM): 78.7* %
- Production level of matrix metalloprotease-1 (%) (matrix metalloprotease-1; 400 μM): 75.5* %
- Production level of matrix metalloprotease-1 (%) (matrix metalloprotease-1; 800 μM): 68.6* %
- Score ([1]; 40 μM): 2.0
- Score ([1]; 80 μM): 2.0
- Score ([1]; 160 μM): 3.0
- Transglutaminase activity (%) (transglutaminase; 100 μM): 300%

Compound: Nc1ncnc2c1ncn2[C@@H]1O[C@H](CO)[C@@H](O)[C@H]1O [Adenosine, reference compound]
- Production level of matrix metalloprotease-1 (%) (matrix metalloprotease-1; 200 μM): 88.7%
- Production level of matrix metalloprotease-1 (%) (matrix metalloprotease-1; 400 μM): 93.4%
- Production level of matrix metalloprotease-1 (%) (matrix metalloprotease-1; 800 μM): 85.6%
- Score ([1]; 100 μM): 0.0
- Score ([1]; 200 μM): 0.0
- Score ([1]; 400 μM): 0.0
- Transglutaminase activity (%) (transglutaminase; 400 μM): 360%

Compound: 3′-α-Glucosyladenosine [reference compound]
- Production level of matrix metalloprotease-1 (%) (matrix metalloprotease-1; 200 μM): 86.6%
- Production level of matrix metalloprotease-1 (%) (matrix metalloprotease-1; 400 μM): 87.1%
- Production level of matrix metalloprotease-1 (%) (matrix metalloprotease-1; 800 μM): 98.7%
- Score ([1]; 200 μM): 0.0
- Score ([1]; 400 μM): 0.0
- Score ([1]; 800 μM): 0.0
- Transglutaminase activity (%) (transglutaminase; 400 μM): 269%

Compound: 5′-α-Glucosyladenosine [reference compound]
- Production level of matrix metalloprotease-1 (%) (matrix metalloprotease-1; 200 μM): 89.9%
- Production level of matrix metalloprotease-1 (%) (matrix metalloprotease-1; 400 μM): 94.3%
- Production level of matrix metalloprotease-1 (%) (matrix metalloprotease-1; 800 μM): 87.7%
- Score ([1]; 200 μM): 0.0
- Score ([1]; 400 μM): 0.0
- Score ([1]; 800 μM): 0.0
- Transglutaminase activity (%) (transglutaminase; 400 μM): 33%
